Experimental data: publication PMC8277129, “Bioconcentration of Several Series of Cationic Surfactants in Rainbow Trout” (Environmental Science & Technology, 2021)
Several values for one entry are separate records, joined by “and”; a condition that tells them apart may be missing. Identical values can stand only once. Marks after values point to notes of the source that are not given here.

Tests used:
[1] = test system: juvenile rainbow trout (Oncorhynchus mykiss); test: Bioconcentration (BCF) experiment based on OECD 305, aqueous exposure to surfactant mixtures; type: in vivo; conditions: for BCF (kU/kT) / uptake rate constant (kU) / measured total elimination rate constant (kT): whole fish; for factor by which BCF is lower for the QAC than for the tertiary amine with the same chain length: pH 7.6, Q10 vs T10, Q14 vs T14; for uptake rate constant (kU): 14 d exposure, 28 d depuration
Description: Juvenile rainbow trout were purchased from EM lax in Västervik, Sweden, and held in the aquaria facility for one month prior to starting the experiment on August 28, 2018. Ethical approval for the experiments was obtained from Stockholm’s djurförsöksetiska nämnd (decision 9967–2017). The experiment was conducted in six 350 L fiberglass aquaria with a water renewal rate of 1.5 L min^–1 corresponding to a turnover time of […]. The water temperature and the air temperature in the aquaria room were 10 °C. The lighting was dim and programmed on a 12 h light/12 h dark cycle.
Three BCF experiments were conducted, one each for MIX1 and MIX2 at pH ∼7.6 (denoted MIX1 and MIX2 in the following), and one for MIX1 at pH ∼6.2 (MIX1pH). Each experiment consisted of a 14 d exposure phase and a 28 d depuration phase. There were also two control aquaria where unexposed fish were kept, one at pH 7.6 and one at pH 6.2. For the pH 6.2 aquaria, a 20% v:v formic acid solution was pumped into a premixing basin where it was mixed with the inflowing water before entering the aquarium. pH sensors monitored pH in the premixing basin and the aquarium. The pH for the MIX1 and MIX2 experiments was governed by the pH of the water supply. Water samples were collected at 8 time points during each experiment for the determination of pH and alkalinity. Water samples were collected daily during the exposure phase for determination of total organic carbon (TOC), which was measured with NDIR detection after acidification, purging and high-temperature catalytic combustion (Shimadzu TOC-L).
For the exposure phase, a methanol solution of the test chemical mixture was infused continuously at 4.0 μL min^–1 into the water inflow of the aquarium using a syringe pump. The target concentrations of the chemicals in water ranged from 2.5 to 100 μg L^–1 (Table 1). They were selected to be as low as possible to minimize the risk of toxic effects while still being high enough to enable collection of high-quality data, building on the results of the tissue distribution experiment.[32] The syringe pump was started in an aquarium containing no fish. After 16 h to allow the concentrations to stabilize, ∼80 rainbow trout were transferred to the aquarium. Over the following 14 d water samples were collected and fish were sacrificed according to the schedule in Table S5. The remaining fish were then transferred to a second aquarium that received water without chemical addition. Over the following 28 d further water samples were collected and fish were sacrificed (Table S5).
At each fish sampling, 4–6 fish were sacrificed. Fish were also sampled periodically from the control aquaria. Following stunning and severance of the spinal cord, the fish were placed in a polyethylene bag, weighed, and immediately frozen at −20 °C. The median fish weight at sacrifice was 10.94 g, with a 25th and 75th percentile of 8.43 and 13.58 g, respectively.
Three fish from each time point were prioritized for analysis based on proximity to the median fish weight. Each fish was semithawed, cut into 3–4 pieces, and homogenized with an Ultra-Turrax device. 150 mg of the homogenate was transferred to a preweighed 13 mL polypropylene tube, centrifuged to a pellet, and weighed. 50 μL of methanol was added and the prepared aliquot was frozen. For extraction internal standard solution (isotope labeled standards of Q10 (D21), Q14 (D29), and P16 (D33)), 3 mL of methanol and 3 steel balls (3.2 mm diameter) were added to the prepared aliquot. This mixture was mixed in a bullet blender for 1 min, and then placed in an ultrasound bath at 50 °C for 60 min. Following centrifugation, the supernatant was decanted and the extraction was repeated. The extracts were combined and a portion corresponding to 25–50 mg homogenate was cleaned up on a weak cationic exchange SPE column (WCX, 60 mg) as described elsewhere.[32] […]

[2] = ref Timmer and Droge (2017); cited from earlier work
[3] = design: method as in Perrin 1965, SRC, REACH, Perrin 1972, Hall 1957; conditions: ref Perrin 1965, SRC, REACH, Perrin 1972, Hall 1957, cited from earlier work; for pKa, experimental reference data: 25 °C
[4] = design: method as in REACH dossier; conditions: aqueous; ref REACH dossier; cited from earlier work
[5] = test system: gills of rainbow trout; test: Mechanistic one-box mass balance model of gill uptake and elimination; conditions: for predicted gill elimination rate constant eq 1 (k2): from measured kU and modeled αW, αB, DFW
Excerpt: To gain more mechanistic insight into the results, we formulated a simple one-box mass balance model of chemical bioconcentration in fish that considered diffusive uptake and elimination across the gills as well as biotransformation.[33] The flow of water across the gills and the flow of blood through the gills were modeled as perfusion limited resistances that constrain gill uptake and elimination. […] Consequently, these resistances are unknowns. Ion trapping effects caused by differences in pH between water at the gill surface and blood in the gills are considered, drawing on previous work on the uptake and elimination of ionizable organic chemicals across the gills of rainbow trout.[22],[23] Partitioning of the chemical from the dissolved phase into blood and into whole fish was calculated as the product of the membrane lipid–water distribution ratio (DMLW,T, including partitioning of both the neutral and the charged forms) and the fraction of membrane lipid in blood and whole fish. A detailed description of the model is provided in the SI (Text S3).
The contribution of the water perfusion and blood perfusion resistances were compared with the overall resistance for transport across the gills from water to blood (RW→B), which was calculated from the measured kU according to equation S4.3. […] For all of the other chemicals the blood resistance is insignificant compared to the overall resistance.
The rate constant for elimination across the gills, k2, can be defined as follows: [drawing 1] 1 where αB and αW are the neutral fractions of the chemical in the blood and in the water at the gill surface, respectively, and DFW is the fish-water distribution ratio of the chemical at the pH of blood (8.1) (see Text S3). Using the measured kU and the values of αW, αB, and DFW estimated for the model, k2 was calculated (Table 2).

In the case of `CCCCCCCCCC[N+](C)(C)C` [Q10, N,N,N-trimethyl-1-decylammonium], the “BCF (kU/kT)” value ([1]; pH 7.6 (MIX1, MIX2)) is listed as <0.2 ^c L kg^–1, the “factor by which BCF is lower for the QAC than for the tertiary amine with the same chain length” value [1] is listed as greater than 670 and the “Log DMLW,C (membrane-water partition coefficient of the charged form)” value (“Log DMLW,C” below) [2] is listed as 3.34.

With `CCCCCCCCCCCCCC[N+](C)(C)C` [Q14, N,N,N-trimethyl-1-tetradecylammonium] the “initial rapid sorption as share of the cumulative uptake over 14 d” value ([1]; 14 d exposure phase) was less than 5%, the “factor by which BCF is lower at pH 6.2 than at pH 7.6” value ([1]; MIX1 vs MIX1pH) was “no influence of pH on BCF” and the “factor by which kU is lower at pH 6.2 than at pH 7.6” value ([1]; MIX1 vs MIX1pH) was “the same”. The “uptake rate constant (kU)” value ([1]; pH 6.2 (MIX1pH)) was 0.121 L kg^–1 h^–1, the “BCF (kU/kT)” value ([1]; pH 6.2 (MIX1pH)) was 55 L kg^–1 and the “measured total elimination rate constant (kT)” value ([1]; pH 6.2 (MIX1pH)) was 0.0022 h^–1. The “uptake rate constant (kU)” value ([1]; pH 7.6 (MIX1, MIX2), 10 °C) was 0.104 L kg^–1 h^–1, the “BCF (kU/kT)” value ([1]; pH 7.6 (MIX1, MIX2)) was 51 L kg^–1 and the “measured total elimination rate constant (kT)” value ([1]; pH 7.6 (MIX1, MIX2)) was 0.0020 h^–1. For the same compound, the “factor by which BCF is lower for the QAC than for the tertiary amine with the same chain length” value [1] was 160 and the “Log DMLW,C” value [2] was 5.46.

In the case of `CCCCCCCCN` [octylamine, reference compound], the “pKa, experimental reference data” value [3] is given as 10.7 and 10.6.

For `CCCCCCCCCCCCCC[N+](C)(C)Cc1ccccc1.[Cl-]` [benzyldimethyltetradecylazanium chloride], the “SURFACE TENSION” value [4] is listed as 34.5 mN/m.

For `CCCCCCCCCC[N+](C)(C)CCCCCCCCCC.CCCCCCCCCC[N+](C)(C)CCCCCCCCCC.O=C([O-])CCCCC(=O)[O-]` [1-Decanaminium,N-decyl-N,N-dimethyl-, hexanedioate(2:1)], the “SURFACE TENSION” value [4] is given as 32.3 mN/m.

For `CCCCN(C)C` [N,N-dimethylbutylamine, reference compound], the “pKa, experimental reference data” value [3] is listed as 10.02.

In the case of `CCCCNCCCC` [N-butylbutan-1-amine], the “SURFACE TENSION” value [4] is given as 50.6 mN/m.

For `CCCCCCCCN` [octan-1-amine], the “SURFACE TENSION” value [4] is given as 44.2 mN/m.

For `CCCCCCCCCCCCN` [dodecan-1-amine], the “SURFACE TENSION” value [4] is given as 23.1 mN/m.

In the case of `CCCCCCCCCCN(C)C` [T10, N,N-dimethyldecylamine], the “factor by which BCF is lower at pH 6.2 than at pH 7.6” value ([1]; MIX1 vs MIX1pH) is reported as 17, the “factor by which kT is greater at pH 6.2 than at pH 7.6” value ([1]; MIX1 vs MIX1pH) is reported as 1.7 and the “factor by which kU is lower at pH 6.2 than at pH 7.6” value ([1]; MIX1 vs MIX1pH) is reported as 10. The “uptake rate constant (kU)” value ([1]; pH 6.2 (MIX1pH)) was 1.02 L kg^–1 h^–1, the “BCF (kU/kT)” value ([1]; pH 6.2 (MIX1pH)) was 7.9 L kg^–1 and the “measured total elimination rate constant (kT)” value ([1]; pH 6.2 (MIX1pH)) was 0.129 h^–1. The “uptake rate constant (kU)” value ([1]; pH 7.6 (MIX1, MIX2), 10 °C) was 9.9 L kg^–1 h^–1, the “BCF (kU/kT)” value ([1]; pH 7.6 (MIX1, MIX2)) was 134 L kg^–1 and the “measured total elimination rate constant (kT)” value ([1]; pH 7.6 (MIX1, MIX2)) was 0.074 h^–1. The k2/kT ([5]; pH 6.2 (MIX1pH)) was 4.1, the “predicted gill elimination rate constant eq 1 (k2)” value ([5]; pH 6.2 (MIX1pH)) was 0.53 h^–1 and the “factor by which k2 exceeded kT” value ([5]; pH 6.2 experiment) was 4. For the same compound, the “factor by which k2 exceeded kT” value ([5]; pH 7.6) was roughly 5, the k2/kT ([5]; pH 7.6 (MIX1, MIX2)) was 5.0 and the “predicted gill elimination rate constant eq 1 (k2)” value ([5]; pH 7.6 (MIX1, MIX2)) was 0.37 h^–1. For the same compound, the “pKa used (selected value)” value ([3]; selected per amine type, weighted from simulated and experimental analogue data) was “C10N(CH3)2 (10.0)” and the “Log DMLW,C” value [2] was 3.65.

In the case of `CCCCCCCCCCCCCCCCCCN` [octadecan-1-amine], the “SURFACE TENSION” value [4] is listed as 23.9 mN/m.
